ChEMBL document CHEMBL2074153, “Identification of organic anion transporting polypeptide 4 (Oatp4) as a major full-length isoform of the liver-specific transporter-1 (rlst-1) in rat liver” (FEBS Lett, 2000)

T1: Solute carrier organic anion transporter family member 1B2 (Rattus norvegicus, UniProt Q9QZX8)
T1 sequence (Q9QZX8 whole entry): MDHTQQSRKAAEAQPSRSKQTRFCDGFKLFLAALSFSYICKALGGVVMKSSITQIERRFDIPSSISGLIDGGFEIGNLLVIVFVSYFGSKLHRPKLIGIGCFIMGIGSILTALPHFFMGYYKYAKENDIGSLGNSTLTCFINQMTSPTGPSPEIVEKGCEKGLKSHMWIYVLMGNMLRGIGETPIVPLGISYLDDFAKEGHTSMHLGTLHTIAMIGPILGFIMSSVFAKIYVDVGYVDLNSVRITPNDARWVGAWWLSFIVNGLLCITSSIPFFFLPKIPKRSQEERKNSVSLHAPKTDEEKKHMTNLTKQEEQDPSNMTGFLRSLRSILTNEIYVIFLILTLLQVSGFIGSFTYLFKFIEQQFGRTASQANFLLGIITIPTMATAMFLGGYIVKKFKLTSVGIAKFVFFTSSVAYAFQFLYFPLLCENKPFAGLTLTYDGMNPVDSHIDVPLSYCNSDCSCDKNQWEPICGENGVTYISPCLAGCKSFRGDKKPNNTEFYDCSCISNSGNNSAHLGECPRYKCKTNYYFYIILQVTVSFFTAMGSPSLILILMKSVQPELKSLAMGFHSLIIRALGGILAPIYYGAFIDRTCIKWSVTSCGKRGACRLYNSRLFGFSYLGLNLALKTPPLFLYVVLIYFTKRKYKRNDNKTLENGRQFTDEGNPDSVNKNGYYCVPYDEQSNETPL


Tests used:
[1] = molecular target: T1, Solute carrier organic anion transporter family member 1B2; test: (§1) TP_TRANSPORTER: uptake in Xenopus laevis oocytes; format: functional, cell-based; conditions: oocyte
[2] = substrate: O=C1OC(c2ccc(O)c(S(=O)(=O)O)c2)(c2ccc(O)c(S(=O)(=O)O)c2)c2c(Br)c(Br)c(Br)c(Br)c21; test: as §1; format: functional, cell-based, Oocyte

Molecule	Activity [1]	Km [2]
N[C@@H](Cc1cc(I)c(Oc2ccc(O)c(I)c2)c(I)c1)C(=O)O [LIOTHYRONINE]	substrate [+]	
N[C@@H](Cc1cc(I)c(Oc2cc(I)c(O)c(I)c2)c(I)c1)C(=O)O [LEVOTHYROXINE]	substrate [+]	
Solute carrier organic anion transporter family member 1B2 (Rattus norvegicus) (protein) MDHTQQSRKAAEAQPSRSKQTRFCDGFKLFLAALSFSYICKALGGVVMKSSITQIERRFDIPSSISGLIDGGFEIGNLLVIVFVSYFGSKLHRPKLIGIGCFIMGIGSILTALPHFFMGYYKYAKENDIGSLGNSTLTCFINQMTSPTGPSPEIVEKGCEKGLKSHMWIYVLMGNMLRGIGETPIVPLGISYLDDFAKEGHTSMHLGTLHTIAMIGPILGFIMSSVFAKIYVDVGYVDLNSVRITPNDARWVGAWWLSFIVNGLLCITSSIPFFFLPKIPKRSQEERKNSVSLHAPKTDEEKKHMTNLTKQEEQDPSNMTGFLRSLRSILTNEIYVIFLILTLLQVSGFIGSFTYLFKFIEQQFGRTASQANFLLGIITIPTMATAMFLGGYIVKKFKLTSVGIAKFVFFTSSVAYAFQFLYFPLLCENKPFAGLTLTYDGMNPVDSHIDVPLSYCNSDCSCDKNQWEPICGENGVTYISPCLAGCKSFRGDKKPNNTEFYDCSCISNSGNNSAHLGECPRYKCKTNYYFYIILQVTVSFFTAMGSPSLILILMKSVQPELKSLAMGFHSLIIRALGGILAPIYYGAFIDRTCIKWSVTSCGKRGACRLYNSRLFGFSYLGLNLALKTPPLFLYVVLIYFTKRKYKRNDNKTLENGRQFTDEGNPDSVNKNGYYCVPYDEQSNETPL		1.1 µM
